Data published in BigSolDB 2.1.

Brc1cnc2[nH]ccc2c1
solubility (mole fraction)
Details | in acetonitrile | in dichloromethane | in ethanol | in ethyl acetate | in isopropanol | in methanol | in methyl acetate | in n-butanol | in n-hexane | in n-propanol
278.15 K | 0.00224 | 0.00083 | 0.0078 | 0.0161 | 0.00779 | 0.00595 | 0.0222 | 0.0154 | 0.00015 | 0.00916
283.15 K | 0.00304 | 0.00133 | 0.00958 | 0.0184 | 0.00915 | 0.00673 | 0.0253 | 0.0177 | 0.00017 | 0.0109
288.15 K | 0.00366 | 0.00216 | 0.0106 | 0.02 | 0.0106 | 0.00779 | 0.0279 | 0.0202 | 0.00019 | 0.0123
293.15 K | 0.00436 | 0.00333 | 0.0125 | 0.0225 | 0.0123 | 0.00882 | 0.0312 | 0.0228 | 0.00021 | 0.0145
298.15 K | 0.00519 | 0.00505 | 0.0139 | 0.0258 | 0.0143 | 0.00972 | 0.0347 | 0.0251 | 0.00024 | 0.0165
303.15 K | 0.00616 | 0.00749 | 0.0158 | 0.0286 | 0.0165 | 0.0111 | 0.0381 | 0.0278 | 0.00027 | 0.0188
308.15 K | 0.00726 | 0.0106 | 0.0177 | 0.0321 | 0.019 | 0.0124 | 0.0419 | 0.0312 | 0.0003 | 0.0209
313.15 K | 0.00858 | 0.0148 | 0.0198 | 0.0363 | 0.0217 | 0.0138 | 0.0459 | 0.0345 | 0.00034 | 0.0237
318.15 K | 0.00981 | – | 0.0222 | 0.0404 | 0.0252 | 0.0153 | 0.0509 | 0.0377 | 0.00036 | 0.0268
323.15 K | 0.0116 | – | 0.0245 | 0.045 | 0.0275 | 0.0171 | 0.0549 | 0.0415 | 0.00041 | 0.0298
